Experimental findings from patent US10766879B2, “Pyrimidine derivatives as kinase inhibitors and their therapeutical applications” (NantBioScience, Inc., priority 2015, dated 2020) are described below.

Bounds are passed on as bounds.

Experiment [1] concerns the target T1, Abl kinase (Homo sapiens, UniProt P00519).
T1 construct: purchased Millipore (KinaseProfiler Service)
As to the kind of experiment: KinaseProfiler kinase inhibition assay, Abl. Type of experiment: biochemical. As to conditions: 1 μM compound.

Experiment [2] has as its target T2, Alk kinase (Homo sapiens, UniProt Q9UM73).
T2 construct: purchased Millipore (KinaseProfiler Service)
As to the kind of experiment: KinaseProfiler kinase inhibition assay, Alk. Type of experiment: biochemical. As to conditions: 1 μM compound.

Experiment [3] has as its target T3, c-Src kinase (Homo sapiens, UniProt P12931).
T3 construct: purchased Millipore (KinaseProfiler Service)
As to the kind of experiment: KinaseProfiler kinase inhibition assay, c-Src. Type of experiment: biochemical. As to conditions: 1 μM compound; read-out: % Inhibition @1 μM cSrc.

In experiment [4] the target is T4, FGFR1 kinase (Homo sapiens, UniProt P11362).
T4 construct: purchased Millipore (KinaseProfiler Service)
As to the kind of experiment: KinaseProfiler kinase inhibition assay, FGFR1. Type of experiment: biochemical. As to conditions: 1 μM compound.

Experiment [5] concerns the target T5, KDR kinase (Homo sapiens, UniProt P35968).
T5 construct: purchased Millipore (KinaseProfiler Service)
As to the kind of experiment: KinaseProfiler kinase inhibition assay, KDR. Type of experiment: biochemical. Conditions: 1 μM compound.

For experiment [6], the target named is T6, Ret kinase (Homo sapiens, UniProt P07949).
T6 construct: purchased Millipore (KinaseProfiler Service)
As to the kind of experiment: KinaseProfiler kinase inhibition assay, Ret. Type of experiment: biochemical. As to conditions: 1 μM compound.

In experiment [7] the target is T7, Tie2 (Homo sapiens, UniProt Q02763).
T7 construct: purchased Millipore (KinaseProfiler Service)
As to the kind of experiment: KinaseProfiler kinase inhibition assay, Tie2. Type of experiment: biochemical. As to conditions: 1 μM compound.

Experiment [8] has as its system MDA-MB134. As to the kind of experiment: CellTiterblue viability, 72 hr, MDA-MB134. Type of experiment: cell-based. Conditions: MDA-MB134 cells. The procedure: (§1) A number of studies were performed to analyze the consequences of tyrosine kinase inhibition in cell lines. To do this, 1000 cells are seeded in 27 μl/well in 384-well microplates, which are then placed in a humidified CO2 incubator at 37° C. overnight. The next day, 3 μl/well of 10× concentrated drug is added and the plates are returned to the incubator for 72 hr. After 72 hr incubation, plates are removed and […] CellTiterblue (Promega) viability reagent is added. Plates are returned to the incubator for 3 hr, after which it is fluorescence measurements are read on the Victor X3 plate reader (Perkin Elmer). Data are analyzed using Excel (Microsoft), and GI50 values are determined using Prism (Graphpad).
In general terms: Resazurin is reduced to fluorescent resorufin, in cell work by metabolically active cells.

Experiment [9] deals with AN3_CA. As to the kind of experiment: CellTiterblue viability, 72 hr, AN3_CA. Type of experiment: cell-based. As to conditions: Homo sapiens, AN3-CA, AN3_CA cells. The procedure: as §1
The subject of experiment [10] is Kato III. The experiment can be described thus: CellTiterblue viability, 72 hr, Kato III. Type of experiment: cell-based. As to conditions: Homo sapiens, Kato III cells. The procedure:
as §1

The subject of experiment [11] is KG1a. As to the kind of experiment: CellTiterblue viability, 72 hr, KG1a. Type of experiment: cell-based. As to conditions: Homo sapiens, KG-1a, KG1a cells. The procedure:
as §1

Experiment [12] has as its system RT112. The experiment can be described thus: CellTiterblue viability, 72 hr, RT112. Type of experiment: cell-based. As to conditions: Homo sapiens, RT-112, RT112 cells. The procedure:
as §1

T6 sequence (P07949 29-1114): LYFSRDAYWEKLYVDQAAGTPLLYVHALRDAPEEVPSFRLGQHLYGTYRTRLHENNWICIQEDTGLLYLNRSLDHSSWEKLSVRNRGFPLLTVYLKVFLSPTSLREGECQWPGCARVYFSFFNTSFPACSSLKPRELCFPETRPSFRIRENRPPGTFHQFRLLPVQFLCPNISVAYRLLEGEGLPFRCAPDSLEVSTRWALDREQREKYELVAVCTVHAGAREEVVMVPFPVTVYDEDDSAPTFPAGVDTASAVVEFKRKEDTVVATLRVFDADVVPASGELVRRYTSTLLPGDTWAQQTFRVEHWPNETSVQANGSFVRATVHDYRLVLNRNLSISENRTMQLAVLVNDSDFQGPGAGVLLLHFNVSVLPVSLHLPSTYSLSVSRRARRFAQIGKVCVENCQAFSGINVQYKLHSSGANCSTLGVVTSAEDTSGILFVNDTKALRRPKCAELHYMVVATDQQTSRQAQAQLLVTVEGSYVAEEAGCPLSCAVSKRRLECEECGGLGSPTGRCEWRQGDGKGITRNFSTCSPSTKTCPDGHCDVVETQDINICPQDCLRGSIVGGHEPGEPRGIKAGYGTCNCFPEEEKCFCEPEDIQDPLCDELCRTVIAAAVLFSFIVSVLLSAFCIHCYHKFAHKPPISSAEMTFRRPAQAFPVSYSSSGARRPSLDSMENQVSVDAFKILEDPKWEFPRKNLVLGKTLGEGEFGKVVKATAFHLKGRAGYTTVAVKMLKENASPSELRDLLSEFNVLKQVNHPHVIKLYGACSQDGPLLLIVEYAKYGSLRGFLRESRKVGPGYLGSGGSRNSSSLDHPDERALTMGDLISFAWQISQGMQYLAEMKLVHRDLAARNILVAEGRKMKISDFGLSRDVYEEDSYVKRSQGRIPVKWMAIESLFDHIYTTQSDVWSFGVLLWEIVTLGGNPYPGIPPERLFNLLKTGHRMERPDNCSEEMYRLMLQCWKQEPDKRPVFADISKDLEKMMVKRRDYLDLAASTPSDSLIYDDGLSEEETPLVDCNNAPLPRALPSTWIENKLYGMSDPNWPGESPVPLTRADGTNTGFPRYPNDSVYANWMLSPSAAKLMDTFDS
T5 sequence (P35968 20-1356): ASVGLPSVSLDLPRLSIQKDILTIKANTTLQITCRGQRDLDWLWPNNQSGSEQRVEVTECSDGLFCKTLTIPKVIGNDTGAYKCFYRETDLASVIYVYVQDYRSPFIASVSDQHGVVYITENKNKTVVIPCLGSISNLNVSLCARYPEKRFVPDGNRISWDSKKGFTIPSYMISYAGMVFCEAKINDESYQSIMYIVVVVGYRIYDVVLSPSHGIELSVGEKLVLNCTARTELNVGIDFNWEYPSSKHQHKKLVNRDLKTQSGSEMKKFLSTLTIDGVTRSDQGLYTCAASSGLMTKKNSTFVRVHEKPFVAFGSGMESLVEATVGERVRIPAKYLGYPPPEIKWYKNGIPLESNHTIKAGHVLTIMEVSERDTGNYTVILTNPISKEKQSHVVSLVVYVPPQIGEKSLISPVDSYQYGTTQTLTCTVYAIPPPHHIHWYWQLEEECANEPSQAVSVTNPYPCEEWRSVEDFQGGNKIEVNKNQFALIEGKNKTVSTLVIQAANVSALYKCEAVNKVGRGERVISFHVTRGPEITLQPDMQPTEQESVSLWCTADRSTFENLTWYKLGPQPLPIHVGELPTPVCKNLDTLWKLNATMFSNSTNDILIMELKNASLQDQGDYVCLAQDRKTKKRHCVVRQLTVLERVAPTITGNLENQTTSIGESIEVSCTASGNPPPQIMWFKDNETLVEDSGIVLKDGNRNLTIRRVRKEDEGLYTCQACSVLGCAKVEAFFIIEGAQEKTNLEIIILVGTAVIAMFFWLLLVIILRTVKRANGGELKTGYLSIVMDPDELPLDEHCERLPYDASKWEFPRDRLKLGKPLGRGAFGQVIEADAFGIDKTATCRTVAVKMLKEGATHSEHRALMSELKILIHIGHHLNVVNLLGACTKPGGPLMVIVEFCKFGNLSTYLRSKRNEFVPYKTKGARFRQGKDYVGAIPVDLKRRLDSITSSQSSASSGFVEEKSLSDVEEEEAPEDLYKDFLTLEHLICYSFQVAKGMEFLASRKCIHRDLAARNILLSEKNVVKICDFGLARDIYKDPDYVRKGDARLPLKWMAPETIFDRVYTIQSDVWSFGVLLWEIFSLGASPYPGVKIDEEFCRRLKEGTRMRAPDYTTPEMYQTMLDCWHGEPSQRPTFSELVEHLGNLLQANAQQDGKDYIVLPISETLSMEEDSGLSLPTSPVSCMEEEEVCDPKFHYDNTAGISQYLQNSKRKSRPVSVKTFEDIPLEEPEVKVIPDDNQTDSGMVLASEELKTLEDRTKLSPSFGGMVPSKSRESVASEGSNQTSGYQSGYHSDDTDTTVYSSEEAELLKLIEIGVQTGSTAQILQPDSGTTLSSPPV
T2 sequence (Q9UM73 19-1620): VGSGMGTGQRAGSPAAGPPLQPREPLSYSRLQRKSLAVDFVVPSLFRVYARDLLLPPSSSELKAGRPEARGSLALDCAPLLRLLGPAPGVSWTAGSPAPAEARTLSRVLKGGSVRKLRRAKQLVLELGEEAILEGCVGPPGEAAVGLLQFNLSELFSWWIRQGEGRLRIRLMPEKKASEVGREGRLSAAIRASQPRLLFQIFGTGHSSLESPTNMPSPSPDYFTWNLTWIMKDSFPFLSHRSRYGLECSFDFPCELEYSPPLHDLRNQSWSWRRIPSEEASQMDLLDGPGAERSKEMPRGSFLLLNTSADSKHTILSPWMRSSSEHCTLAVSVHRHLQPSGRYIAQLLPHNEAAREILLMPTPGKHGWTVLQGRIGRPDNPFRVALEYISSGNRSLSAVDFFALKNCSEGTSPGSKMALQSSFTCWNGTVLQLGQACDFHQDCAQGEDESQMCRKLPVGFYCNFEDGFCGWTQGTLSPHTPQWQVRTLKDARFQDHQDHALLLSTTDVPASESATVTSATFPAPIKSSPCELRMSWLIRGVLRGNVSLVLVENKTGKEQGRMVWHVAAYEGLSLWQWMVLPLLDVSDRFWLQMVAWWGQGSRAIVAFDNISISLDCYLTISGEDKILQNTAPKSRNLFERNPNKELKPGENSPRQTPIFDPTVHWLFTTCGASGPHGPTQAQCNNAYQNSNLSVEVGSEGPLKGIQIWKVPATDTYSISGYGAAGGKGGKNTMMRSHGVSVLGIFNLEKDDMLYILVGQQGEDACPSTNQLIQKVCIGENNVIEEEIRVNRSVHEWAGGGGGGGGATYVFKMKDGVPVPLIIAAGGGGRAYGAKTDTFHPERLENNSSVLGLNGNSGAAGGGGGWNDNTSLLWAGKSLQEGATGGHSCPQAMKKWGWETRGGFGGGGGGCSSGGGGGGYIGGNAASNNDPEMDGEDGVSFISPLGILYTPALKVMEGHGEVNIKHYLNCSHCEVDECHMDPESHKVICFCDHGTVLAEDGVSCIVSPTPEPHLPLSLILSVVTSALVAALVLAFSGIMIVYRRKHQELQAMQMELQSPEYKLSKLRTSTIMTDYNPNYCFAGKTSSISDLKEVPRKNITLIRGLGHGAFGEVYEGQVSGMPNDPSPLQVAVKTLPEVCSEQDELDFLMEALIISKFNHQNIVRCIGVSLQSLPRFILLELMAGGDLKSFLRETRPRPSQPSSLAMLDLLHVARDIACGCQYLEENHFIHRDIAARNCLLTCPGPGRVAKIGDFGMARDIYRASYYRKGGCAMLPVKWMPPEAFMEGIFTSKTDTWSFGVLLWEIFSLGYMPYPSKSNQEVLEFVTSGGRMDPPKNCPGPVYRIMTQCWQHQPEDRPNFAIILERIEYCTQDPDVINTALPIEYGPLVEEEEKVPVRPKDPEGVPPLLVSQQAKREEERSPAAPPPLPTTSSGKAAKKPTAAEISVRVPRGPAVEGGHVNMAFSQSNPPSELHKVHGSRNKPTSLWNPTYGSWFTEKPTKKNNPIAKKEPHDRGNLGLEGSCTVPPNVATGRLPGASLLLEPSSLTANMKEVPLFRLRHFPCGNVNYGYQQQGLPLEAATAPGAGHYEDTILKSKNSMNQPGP
T3 sequence (P12931 whole entry): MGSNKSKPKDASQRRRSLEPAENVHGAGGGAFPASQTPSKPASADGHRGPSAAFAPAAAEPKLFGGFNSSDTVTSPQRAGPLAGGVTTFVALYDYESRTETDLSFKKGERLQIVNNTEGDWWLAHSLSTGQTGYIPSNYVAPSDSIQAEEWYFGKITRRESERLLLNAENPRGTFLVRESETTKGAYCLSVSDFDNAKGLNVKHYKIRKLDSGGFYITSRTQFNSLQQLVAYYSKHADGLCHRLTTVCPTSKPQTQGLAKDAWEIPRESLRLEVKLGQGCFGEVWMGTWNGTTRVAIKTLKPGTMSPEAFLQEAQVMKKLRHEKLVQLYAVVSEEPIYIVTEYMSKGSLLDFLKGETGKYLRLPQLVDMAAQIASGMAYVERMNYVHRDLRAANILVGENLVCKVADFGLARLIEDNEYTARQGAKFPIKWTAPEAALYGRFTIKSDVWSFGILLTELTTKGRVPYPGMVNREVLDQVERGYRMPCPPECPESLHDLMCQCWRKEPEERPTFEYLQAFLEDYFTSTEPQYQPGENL

With `Cc1cc2c(F)c(Oc3ncnc(Nc4ccc(N5CCN(C)CC5)cn4)c3N)ccc2[nH]1` [Compound 47], the inhibition at 1 µM is -6% in experiment [1]; -31% in experiment [2]; -6% in experiment [3]; 34% in experiment [4]; 1% in experiment [5]; -30% in experiment [6]. Further, the inhibition at 1 µM in experiment [7] stood at 11%. In addition, the GI50 in experiment [8], in [9], in [10], in [11] and in experiment [12] was over 500 nM throughout.
Take `CCN1CCN(c2ccc(Nc3ncnc(Oc4ccc5[nH]c(C)cc5c4F)c3C(N)=O)cc2)CC1` [Compound 68]: the inhibition at 1 µM in experiment [1] turned out to be 67%; in experiment [2], 46%; in experiment [3] it was 85%; in experiment [4] it was 100%; in experiment [5], 96%; in experiment [6], 97%. In addition, in [7], the inhibition at 1 µM worked out at 94%. The GI50 in [8] was 111 nM; in experiment [9], 79 nM; in experiment [10], 23 nM; in experiment [11], 32 nM; in experiment [12], 11 nM.
For the compound `CCN1CCN(c2ccc(Nc3ncnc(Oc4ccc5[nH]c(C)cc5c4F)c3F)nc2)CC1` [Example 29, N-(5-(4-ethylpiperazin-1-yl)pyridin-2-yl)-5-fluoro-6-((4-fluoro-2-methyl-1H-indol-5-yl)oxy)pyrimidin-4-amine], the inhibition at 1 µM in experiment [1] is -7%; in experiment [2], -48%; in [3] it was 15%; in experiment [4] it was 92%; in experiment [5], 70%; in [6], -29%. Also, in experiment [7], the inhibition at 1 µM worked out at 33%. Also, the GI50 in experiment [8], in experiment [9] and in experiment [10] was over 500 nM throughout.
For the compound `CCN1CCN(c2ccc(Nc3ncnc(Oc4ccc5c(cc(C)n5C)c4F)c3F)cc2)CC1` [Compound 63], the inhibition at 1 µM is 3% in experiment [1]; -3% in experiment [2]; 1% in [3]; 91% in experiment [4]; 10% in experiment [5]; -41% in experiment [6]. The inhibition at 1 µM in experiment [7] is 13%. The GI50 in experiment [8] is 282 nM; in experiment [9] it was over 500 nM; in experiment [10] it was over 500 nM; in experiment [11], over 500 nM; in experiment [12] it was over 500 nM.
Take `Cc1cc2c(F)c(Oc3ncnc(Nc4ccc(N5CCN(C)CC5)cc4)c3C#N)ccc2[nH]1` [Compound 54]: the inhibition at 1 µM in experiment [1] was 3%; in experiment [2], -30%; in experiment [3], 8%; in experiment [4], 101%; in experiment [5], 97%; in experiment [6] it was -30%. Further, the inhibition at 1 µM in experiment [7] amounted to 21%. For the same compound, the GI50 in experiment [8] is 20 nM; in [9], 214 nM; in [10], 12 nM; in experiment [11], 4 nM; in experiment [12] it was 103 nM.
Take `Cc1cc2c(F)c(Oc3ncnc(Nc4ccc(N5CCN(C)CC5)cc4)c3C)ccc2[nH]1` [Compound 40]: the inhibition at 1 µM in experiment [1] was 2%; in experiment [2], -23%; in experiment [3], -2%; in experiment [4] it was 91%; in experiment [5], 12%; in experiment [6] it was -46%. For the same compound, the inhibition at 1 µM in experiment [7] is 13%. For the same compound, the GI50 in [8] is 430 nM; in experiment [9] it was over 500 nM; in experiment [10] it was over 500 nM; in experiment [11], over 500 nM; in experiment [12] it was over 500 nM.
Consider `CCN1CCN(c2ccc(Nc3ncnc(Oc4ccc5c(cc(C)n5C)c4F)c3C#N)cc2)CC1` [Compound 65], for which the inhibition at 1 µM in experiment [1] is -1%; in experiment [2], -28%; in [3], 13%; in [4] it was 98%; in experiment [5], 8%; in experiment [6], -19%. The inhibition at 1 µM in experiment [7] came to 37%. In addition, the GI50 was 461 nM in experiment [8]; over 500 nM in experiment [9]; over 500 nM in experiment [10]; over 500 nM in experiment [11]; over 500 nM in experiment [12].
Regarding `Cc1cc2c(F)c(Oc3ncnc(Nc4ccc(N5CCN(C)CC5)cc4)c3N)ccc2[nH]1` [Compound 46], the inhibition at 1 µM in experiment [1] was -13%; in [2], -34%; in [3] it was 12%; in [4], 54%; in [5] it was 5%; in [6], -43%. Besides, the inhibition at 1 µM in experiment [7] came out at 14%. Moreover, the GI50 is 254 nM in experiment [8]; over 500 nM in [9]; over 500 nM in experiment [10]; over 500 nM in [11]; over 500 nM in experiment [12].
As for `CC(=O)N1CCN(c2ccc(Nc3ncnc(Oc4ccc5[nH]c(C)cc5c4F)c3F)cc2)CC1` [Example 26], the inhibition at 1 µM was 7% in [1]; 68% in experiment [2]; 16% in experiment [3]; 46% in experiment [4]; 96% in experiment [5]; -17% in [6]. Moreover, in experiment [7], the inhibition at 1 µM is -11%. The GI50 in experiment [9] and in [10] was over 500 nM in each case.
Regarding `Cc1cc2c(F)c(Oc3ncnc(Nc4ccc(N5CCNCC5)cc4)c3F)ccc2[nH]1` [Example 28], the inhibition at 1 µM in [1] was 12%; in experiment [2] it was 62%; in experiment [3] it was 17%; in experiment [4], 96%; in [5], 97%; in [6] it was -15%. Also, the inhibition at 1 µM in experiment [7] was -7%. For the same compound, the GI50 in experiment [9] and in [10] was over 500 nM in each case.
As for `CNC(=O)c1ccc(Nc2cc(Oc3ccc4[nH]c(C)cc4c3F)ncn2)cc1` [Example 12], the inhibition at 1 µM in experiment [1] was determined as 18%; in experiment [2] it was 60%; in experiment [3], 30%; in experiment [4], 89%; in experiment [5], 98%; in experiment [6], 21%. Besides, the inhibition at 1 µM in experiment [7] is 20%. In addition, the concentration for 50% growth inhibition (GI50) in experiment [9] and in experiment [10] was over 500 nM in each case.
In the case of `Cc1cc2c(F)c(Oc3cc(Nc4ccc(N5CCOCC5)cc4)ncn3)ccc2[nH]1` [Example 9], the inhibition at 1 µM stood at 21% in [1]; 70% in experiment [2]; 20% in [3]; 75% in experiment [4]; 96% in experiment [5]; 35% in experiment [6]. In experiment [7], the inhibition at 1 µM came to 24%. Further, the GI50 in [9] and in experiment [10] was over 500 nM in each case.
In the case of `Cc1cc2c(F)c(Oc3cc(Nc4cccc(N5CCN(C)CC5)c4)ncn3)ccc2[nH]1` [Example 13], the inhibition at 1 µM came to 41% in [1]; 60% in [2]; 32% in [3]; 98% in [4]; 98% in experiment [5]; 61% in experiment [6]. Further, the inhibition at 1 µM in [7] stood at 70%. Further, the 50% growth inhibitory concentration (GI50) in experiment [9] is over 500 nM; in experiment [10], 170 nM.

One may read the inhibition as the drop in the measured response relative to a control, in per cent. In general, GI50 refers to the concentration giving 50% growth inhibition. Lower therefore signals greater sensitivity of the cells.
